What was measured:
rosacea = assay: topical treatment of rosacea (related materials tested); format: in vivo, humans; details: topical application
skin = skin irritation on topical application; format: in vivo

SMILES	usefulness in the present invention (treatment of rosacea) (rosacea)	irritation (reddening) of the skin to which it is applied (skin)
OC1CCCC1O (stereo not drawn) [1,2-cyclopentanediol]	do not work	–
CC1(O)CCCCC1 [1-methylcyclohexanol]	not to be useful	–
OCCCCC1CCCCC1 [4-cyclohexyl-1-butanol]	not to be useful	–
OCC1(CO)CC2C=CC1C2 (stereo not drawn) [5-norborene-2,2-dimethanol]	do not work	–
CC1(C)[C@H]2C[C@H]1[C@@](C)(O)[C@@H](O)C2 [(1R,2R,3S,5S-(−))-pinanediol]	do not work	–
C1CCCCC1 [cyclohexane]	not to be useful	–
C1=CCCCC1 [cyclohexene]	not to be useful	–
CC(=O)OC1CCCCC1 [cyclohexyl acetate]	not to be useful	–
O=C(O)C1CCCCC1 [cyclohexyl carboxylic acid]	not to be useful	–
ClC1CCCCC1 [cyclohexyl chloride]	not to be useful	–
CC1CCC(C(C)C)C(O)C1 (stereo not drawn) [menthol]	not to be useful	can irritate (and thereby redden) the skin

From patent US6723755B2, “Method of treating rosacea” (priority 2002, dated 2004)
